# From patent publication US6737383B1, “Herbicidal oxadiazolidines” (priority 1999, dated 2004)
# Assays:
# soybean = experiment: Test B pre/postemergence soybean; assay type: in vivo, Glycine max; details: for Plant response rating, Soybean: Postemergence
# In short: (§1)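 Response is a visual 0-to-10 score relative to untreated plants, where 0 means no effect and 10 means complete control, taken twelve to sixteen days after application. Treatments went onto soil at planting and onto foliage of 1- to 4-leaf plants, using a surfactant-containing non-phytotoxic solvent.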
# wild oat = experiment: Test B pre/postemergence wild oat; assay type: in vivo, Avena fatua; details: for Plant response rating, Wild oats: Postemergence
# In short: as §1
# surinam grass = experiment: Test B pre/postemergence surinam grass; assay type: in vivo, Brachiaria decumbens
# In short: as §1
# blackgrass = experiment: Test B pre/postemergence blackgrass; assay type: in vivo, Alopecurus myosuroides
# In short: as §1
# crabgrass = experiment: Test B pre/postemergence crabgrass; assay type: in vivo, Digitaria sanguinalis
# In short: as §1
# purple nutsedge = experiment: Test B pre/postemergence purple nutsedge; assay type: in vivo, Cyperus rotundus
# In short: as §1
# bedstraw = experiment: Test B pre/postemergence bedstraw; assay type: in vivo, Galium aparine
# In short: as §1
# velvetleaf = experiment: Test B pre/postemergence velvetleaf; assay type: in vivo, Abutilon theophrasti; details: for Plant response rating, Velvetleaf: Postemergence
# In short: as §1
# rape = experiment: Test B pre/postemergence rape; assay type: in vivo, Brassica napus
# In short: as §1
# corn = experiment: Test B pre/postemergence corn; assay type: in vivo, Zea mays
# In short: as §1
# pigweed = experiment: Test B pre/postemergence pigweed; assay type: in vivo, Amaranthus retroflexus; details: for Plant response rating, Redroot pigweed: Postemergence
# In short: as §1
# sugar beet = experiment: Test B pre/postemergence sugar beet; assay type: in vivo, Beta vulgaris; details: for Plant response rating, Sugarbeets: Postemergence
# In short: as §1
# cocklebur = experiment: Test B pre/postemergence cocklebur; assay type: in vivo, Xanthium strumarium
# In short: as §1
# giant foxtail = experiment: Test B pre/postemergence giant foxtail; assay type: in vivo, Setaria faberii
# In short: as §1
# wheat = experiment: Test B pre/postemergence wheat; assay type: in vivo, Triticum aestivum; details: for Plant response rating, Wheat: Postemergence
# In short: as §1
# morningglory = experiment: Test B pre/postemergence morningglory; assay type: in vivo, Ipomoea hederacea
# In short: as §1
# [1] = Rate 500 g/ha, scale of 0 to 10 where 0 is no effect and 10 is complete control
# [2] = Preemergence, Rate 62 g/ha, scale 0 to 10 (0 no effect, 10 complete control)
# [3] = Preemergence, Rate 125 g/ha, scale of 0 to 10 where 0 is no effect and 10 is complete control
# [4] = Preemergence, Rate 500 g/ha, scale of 0 to 10 where 0 is no effect and 10 is complete control
# [5] = Rate 250 g/ha, scale of 0 to 10 where 0 is no effect and 10 is complete control
# [6] = Postemergence, Rate 62 g/ha, scale of 0 to 10, 0 is no effect, 10 is complete control
# [7] = Postemergence, Rate 125 g/ha, scale 0 to 10, 0 is no effect, 10 is complete control
# [8] = Postemergence, Rate 500 g/ha, scale of 0 to 10 where 0 is no effect and 10 is complete control
# [9] = Rate 250 g/ha, Postemergence, scale of 0 to 10 where 0 is no effect and 10 is complete control
smiles,measurement,setting,value
CC(C)N(C(=O)n1oc(=O)n(COCc2ccccc2)c1=O)c1ccccc1 [Compound 579],"Plant response rating, Soybean",soybean; [1],4
same,Soybean plant response rating,soybean; [2],0
same,Soybean plant response rating,soybean; [3],0
same,Soybean plant response rating (0 to 10 scale),"soybean; Preemergence, Rate 250 g/ha",0
same,Soybean plant response rating,soybean; [4],0
same,"Plant response rating, Soybean",soybean; [5],3
same,"Plant response rating, Wild oats",wild oat; [1],0
same,Wild oats plant response rating,wild oat; [2],0
same,Wild oats plant response rating,wild oat; [3],0
same,Wild oats plant response rating (0 to 10 scale),"wild oat; Preemergence, Rate 250 g/ha",0
same,Wild oats plant response rating,wild oat; [4],0
same,"Plant response rating, Wild oats",wild oat; [5],0
same,B. signalgrass plant response rating,surinam grass; [6],0
same,B. signalgrass plant response rating,surinam grass; [7],0
same,"Plant response rating, B. signalgrass",surinam grass; [8],2
same,B. signalgrass plant response rating,surinam grass; [2],0
same,B. signalgrass plant response rating,surinam grass; [3],0
same,"B. signalgrass plant response rating (0 to 10 scale, 0 is no effect, 10 is complete control)","surinam grass; Preemergence, Rate 250 g/ha",2
same,B. signalgrass plant response rating,surinam grass; [4],3
same,"Plant response rating, B. signalgrass",surinam grass; [9],2
same,Blackgrass plant response rating,blackgrass; [6],0
same,Blackgrass plant response rating,blackgrass; [7],0
same,"Plant response rating, Blackgrass",blackgrass; [8],5
same,Blackgrass plant response rating,blackgrass; [2],0
same,Blackgrass plant response rating,blackgrass; [3],0
same,Blackgrass plant response rating (0 to 10 scale),"blackgrass; Preemergence, Rate 250 g/ha",0
same,Blackgrass plant response rating,blackgrass; [4],0
same,"Plant response rating, Blackgrass",blackgrass; [9],2
same,Crabgrass plant response rating,crabgrass; [6],0
same,Crabgrass plant response rating,crabgrass; [7],6
same,"Plant response rating, Crabgrass",crabgrass; [8],8
same,Crabgrass plant response rating,crabgrass; [2],7
same,Crabgrass plant response rating,crabgrass; [3],7
same,Crabgrass plant response rating (0 to 10 scale),"crabgrass; Preemergence, Rate 250 g/ha",10
same,Crabgrass plant response rating,crabgrass; [4],10
same,"Plant response rating, Crabgrass",crabgrass; [9],6
same,Nutsedge plant response rating,purple nutsedge; [7],0
same,Nutsedge plant response rating,purple nutsedge; [2],0
same,Nutsedge plant response rating,purple nutsedge; [3],0
same,Nutsedge plant response rating (0 to 10 scale),"purple nutsedge; Preemergence, Rate 250 g/ha",0
same,Nutsedge plant response rating,purple nutsedge; [4],3
same,"Plant response rating, Nutsedge",purple nutsedge; [9],0
same,Bedstraw plant response rating,bedstraw; [6],0
same,Bedstraw plant response rating,bedstraw; [7],0
same,Bedstraw plant response rating,bedstraw; [2],0
same,Bedstraw plant response rating,bedstraw; [3],0
same,Bedstraw plant response rating (0 to 10 scale),"bedstraw; Preemergence, Rate 250 g/ha",0
same,Bedstraw plant response rating,bedstraw; [4],0
same,"Plant response rating, Bedstraw",bedstraw; [9],10
same,"Plant response rating, Velvetleaf",velvetleaf; [1],0
same,Velvetleaf plant response rating,velvetleaf; [2],0
same,Velvetleaf plant response rating,velvetleaf; [3],0
same,Velvetleaf plant response rating (0 to 10 scale),"velvetleaf; Preemergence, Rate 250 g/ha",0
same,Velvetleaf plant response rating,velvetleaf; [4],0
same,"Plant response rating, Velvetleaf",velvetleaf; [5],0
same,Rape plant response rating,rape; [6],0
same,Rape plant response rating,rape; [7],0
same,"Plant response rating, Rape",rape; [8],3
same,Rape plant response rating,rape; [2],0
same,Rape plant response rating,rape; [3],0
same,Rape plant response rating (0 to 10 scale),"rape; Preemergence, Rate 250 g/ha",0
same,Rape plant response rating,rape; [4],0
same,"Plant response rating, Rape",rape; [9],0
same,Corn plant response rating,corn; [6],0
same,Corn plant response rating,corn; [7],0
same,"Plant response rating, Corn",corn; [8],0
same,Corn plant response rating,corn; [2],0
same,Corn plant response rating,corn; [3],0
same,Corn plant response rating (0 to 10 scale),"corn; Preemergence, Rate 250 g/ha",0
same,Corn plant response rating,corn; [4],3
same,"Plant response rating, Corn",corn; [9],0
same,"Plant response rating, Redroot pigweed",pigweed; [1],3
same,Redroot pigweed plant response rating,pigweed; [2],0
same,Redroot pigweed plant response rating,pigweed; [3],0
same,Redroot pigweed plant response rating (0 to 10 scale),"pigweed; Preemergence, Rate 250 g/ha",2
same,Redroot pigweed plant response rating,pigweed; [4],3
same,"Plant response rating, Redroot pigweed",pigweed; [5],0
same,"Plant response rating, Sugarbeets",sugar beet; [1],0
same,Sugarbeets plant response rating,sugar beet; [2],0
same,Sugarbeets plant response rating,sugar beet; [3],0
same,Sugarbeets plant response rating (0 to 10 scale),"sugar beet; Preemergence, Rate 250 g/ha",0
same,Sugarbeets plant response rating,sugar beet; [4],0
same,"Plant response rating, Sugarbeets",sugar beet; [5],0
same,Cocklebur plant response rating,cocklebur; [6],0
same,Cocklebur plant response rating,cocklebur; [7],0
same,"Plant response rating, Cocklebur",cocklebur; [8],0
same,Cocklebur plant response rating,cocklebur; [2],0
same,Cocklebur plant response rating,cocklebur; [3],0
same,Cocklebur plant response rating (0 to 10 scale),"cocklebur; Preemergence, Rate 250 g/ha",0
same,Cocklebur plant response rating,cocklebur; [4],0
same,"Plant response rating, Cocklebur",cocklebur; [9],0
same,Giant foxtail plant response rating,giant foxtail; [6],0
same,Giant foxtail plant response rating,giant foxtail; [7],2
same,"Plant response rating, Giant foxtail",giant foxtail; [8],7
same,Giant foxtail plant response rating,giant foxtail; [2],8
same,Giant foxtail plant response rating,giant foxtail; [3],9
same,Giant foxtail plant response rating (0 to 10 scale),"giant foxtail; Preemergence, Rate 250 g/ha",10
same,Giant foxtail plant response rating,giant foxtail; [4],10
same,"Plant response rating, Giant foxtail",giant foxtail; [9],5
same,"Plant response rating, Wheat",wheat; [1],0
same,Wheat plant response rating,wheat; [2],0
same,Wheat plant response rating,wheat; [3],0
same,Wheat plant response rating (0 to 10 scale),"wheat; Preemergence, Rate 250 g/ha",0
same,Wheat plant response rating,wheat; [4],0
same,"Plant response rating, Wheat",wheat; [5],0
same,Morningglory plant response rating,morningglory; [6],10
same,Morningglory plant response rating,morningglory; [7],10
same,"Plant response rating, Morningglory",morningglory; [8],10
same,Morningglory plant response rating,morningglory; [2],0
same,Morningglory plant response rating,morningglory; [3],0
same,Morningglory plant response rating (0 to 10 scale),"morningglory; Preemergence, Rate 250 g/ha",0
same,Morningglory plant response rating,morningglory; [4],0
same,"Plant response rating, Morningglory",morningglory; [9],10
